Measured values: ChEMBL document CHEMBL4706484, “Apigenin-rivastigmine hybrids as multi-target-directed liagnds for the treatment of Alzheimer's disease” (Eur J Med Chem, 2020)
The source made the active and inactive calls. The calls are words filed in the database; no cut-off is given here.

Columns and labels:
[1] = Antioxidant activity of compound assessed as trolox equivalent antioxidant capacity by ORAC-FL assay; type: functional
[2] = target: T1, Cholinesterase (Homo sapiens, UniProt P06276); experiment: Pseudo-irreversible inhibition of human serum BChE assessed as enzyme recovery activity at IC50 using diluted compound relative to control; type: cell-free; design: scale not given: the % may be the effect or the level left
T1 sequence (P06276 whole entry): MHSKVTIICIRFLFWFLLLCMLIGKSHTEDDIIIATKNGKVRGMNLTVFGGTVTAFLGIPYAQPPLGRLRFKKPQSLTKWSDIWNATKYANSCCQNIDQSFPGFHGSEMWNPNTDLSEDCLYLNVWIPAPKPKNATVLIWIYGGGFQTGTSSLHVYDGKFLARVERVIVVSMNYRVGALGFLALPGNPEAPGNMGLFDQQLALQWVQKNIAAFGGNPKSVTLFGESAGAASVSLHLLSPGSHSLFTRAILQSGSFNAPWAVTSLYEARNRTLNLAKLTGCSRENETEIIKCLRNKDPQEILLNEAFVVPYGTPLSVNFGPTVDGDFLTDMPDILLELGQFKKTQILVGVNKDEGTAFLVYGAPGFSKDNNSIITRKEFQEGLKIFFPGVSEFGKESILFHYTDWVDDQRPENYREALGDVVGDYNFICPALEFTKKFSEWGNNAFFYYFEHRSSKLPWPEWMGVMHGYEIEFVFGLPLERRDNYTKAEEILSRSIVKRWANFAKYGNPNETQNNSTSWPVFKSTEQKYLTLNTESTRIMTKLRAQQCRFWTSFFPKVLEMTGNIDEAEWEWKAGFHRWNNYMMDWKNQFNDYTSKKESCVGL

[3] = target: T1, Cholinesterase; experiment: Pseudo-irreversible inhibition of human serum BChE assessed as enzyme recovery activity at IC50 using undiluted compound relative to control; type: cell-free; design: scale not given: the % may be the effect or the level left
[4] = target: Acetylcholinesterase (Homo sapiens, UniProt P22303); experiment: Pseudo-irreversible inhibition of human erythrocytes AChE assessed as enzyme recovery activity at 0.1 times IC50 measured at 120 mins using diluted compound relative to control; type: tissue-based; design: scale not given: the % may be the effect or the level left; settings: Erythrocyte
Chain of Acetylcholinesterase (P22303 whole entry): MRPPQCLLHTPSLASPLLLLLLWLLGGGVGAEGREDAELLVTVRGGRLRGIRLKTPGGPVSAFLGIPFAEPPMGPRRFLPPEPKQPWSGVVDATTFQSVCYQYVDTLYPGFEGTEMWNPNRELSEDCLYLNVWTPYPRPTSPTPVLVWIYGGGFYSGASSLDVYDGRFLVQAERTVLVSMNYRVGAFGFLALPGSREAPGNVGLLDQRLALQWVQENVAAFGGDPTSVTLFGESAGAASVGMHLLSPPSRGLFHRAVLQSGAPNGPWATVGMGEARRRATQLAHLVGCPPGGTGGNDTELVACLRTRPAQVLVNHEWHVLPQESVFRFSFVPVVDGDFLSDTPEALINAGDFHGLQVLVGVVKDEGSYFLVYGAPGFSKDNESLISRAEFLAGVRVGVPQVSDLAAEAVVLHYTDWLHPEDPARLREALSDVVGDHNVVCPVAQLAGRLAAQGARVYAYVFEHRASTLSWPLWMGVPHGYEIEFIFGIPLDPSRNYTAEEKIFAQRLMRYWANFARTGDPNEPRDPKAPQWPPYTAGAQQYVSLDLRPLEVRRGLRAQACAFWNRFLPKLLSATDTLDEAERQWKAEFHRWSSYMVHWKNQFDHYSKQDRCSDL

[5] = target: T1, Cholinesterase; experiment: Pseudo-irreversible inhibition of human serum BChE assessed as enzyme recovery activity at 0.1 times IC50 measured at 240 mins using diluted compound relative to basal level; type: cell-free; design: scale not given: the % may be the effect or the level left
[6] = target: Amyloid-beta precursor protein (Homo sapiens) (UniProt P05067); experiment: Inhibition of self-induced amyloid beta (1 to 42) (unknown origin) aggregation at 25 uM by ThT fluorescence assay relative to control
Chain of Amyloid-beta precursor protein (Homo sapiens) (P05067 whole entry): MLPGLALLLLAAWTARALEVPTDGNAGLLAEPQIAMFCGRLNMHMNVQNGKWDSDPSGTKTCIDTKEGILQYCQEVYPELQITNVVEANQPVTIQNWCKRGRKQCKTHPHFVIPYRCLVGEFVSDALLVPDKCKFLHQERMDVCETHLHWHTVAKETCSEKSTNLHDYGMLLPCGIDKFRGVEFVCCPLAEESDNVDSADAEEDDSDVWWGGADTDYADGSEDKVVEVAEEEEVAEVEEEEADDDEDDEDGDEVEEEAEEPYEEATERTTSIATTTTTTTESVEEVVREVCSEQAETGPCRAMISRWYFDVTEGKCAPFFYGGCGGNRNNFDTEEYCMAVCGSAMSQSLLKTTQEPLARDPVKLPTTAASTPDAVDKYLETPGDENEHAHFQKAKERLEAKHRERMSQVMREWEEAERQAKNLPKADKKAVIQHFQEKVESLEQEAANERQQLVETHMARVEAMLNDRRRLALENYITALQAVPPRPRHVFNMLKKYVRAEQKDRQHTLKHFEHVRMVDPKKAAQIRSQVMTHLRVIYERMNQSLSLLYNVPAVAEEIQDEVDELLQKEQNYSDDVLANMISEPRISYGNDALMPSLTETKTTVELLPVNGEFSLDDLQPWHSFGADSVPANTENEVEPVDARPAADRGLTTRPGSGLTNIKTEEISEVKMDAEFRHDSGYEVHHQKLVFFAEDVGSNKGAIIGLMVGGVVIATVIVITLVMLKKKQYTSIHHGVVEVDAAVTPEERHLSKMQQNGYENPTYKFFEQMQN

[7] = Inhibition of copper-induced amyloid beta (1 to 42) (unknown origin) aggregation at 25 uM by ThT fluorescence assay relative to control
[8] = target: Amyloid-beta precursor protein (Homo sapiens) (UniProt P05067); experiment: Inhibition of self-induced amyloid beta (1 to 42) (unknown origin) aggregation at 25 uM measured after 24 hrs by TEM analysis
[9] = system: PC-12; experiment: Neuroprotective activity against H2O2-induced cell injury in rat PC-12 cells assessed as cell viability at 10 uM preincubated for 2 hrs followed by H2O2 addition and measured after 24 hrs by MTT assay (reference value: 53.8 %); type: functional; settings: time 26 hrs, read-out: Activity
[10] = Metal chelating activity assessed as Cu2+-compound complex formation by measuring absorption wavelength at 37.5 uM in presence of 37.5 uM CuCl2 by UV-Vis spectroscopic analysis
[11] = Metal chelating activity assessed as Al3+-compound complex formation by measuring absorption wavelength at 37.5 uM in presence of 37.5 uM AlCl3 by UV-Vis spectrophotometric analysis
[12] = Metal chelating activity assessed as Fe2+-compound complex formation at 37.5 uM in presence of 37.5 uM FeSO4 by UV-Vis spectrophotometric analysis
[13] = Metal chelating activity assessed as Zn2+-compound complex formation at 37.5 uM in presence of 37.5 uM ZnCl2 by UV-Vis spectrophotometric analysis
[14] = Disaggregation of Copper-induced amyloid beta (1 to 42) (unknown origin) preformed fibrils measured after 48 hrs by TEM analysis
[15] = Cytotoxicity against human L02 cells assessed as cell viability at 6.25 uM measured after 72 hrs by MTT assay relative to control; type: cell-based; settings: read-out: Activity
[16] = Acute toxicity in 2 dpf zebrafish assessed as maximum non-lethal concentration measured after 3 days; design: species or system Danio rerio; settings: in vivo, time 3 day
[17] = Acute toxicity in 2 dpf zebrafish assessed as death at 1.25 to 20 ug/ml measured after 3 days; design: species or system Danio rerio; settings: in vivo, 72 h, dose 1.25-20 µg/ml, time 3 day
[18] = Acute toxicity in 2 dpf zebrafish assessed as yolk sac absorption delay at 1.39 ug/ml measured after 3 days; design: species or system Danio rerio; settings: in vivo, 72 h, dose 1.39 µg/ml, time 3 day
[19] = Acute toxicity in 2 dpf zebrafish assessed as pericardial edema at 1.39 to 12.5 ug/ml measured after 3 days; design: species or system Danio rerio; settings: in vivo, 72 h, dose 1.39-12.5 µg/ml, time 3 day
[20] = Acute toxicity in 2 dpf zebrafish assessed as small or misshapen brain at 1.39 to 12.5 ug/ml measured after 3 days; type: tissue-based, Danio rerio; settings: in vivo, 72 h, dose 1.39-12.5 µg/ml, time 3 day
[21] = Acute toxicity in 2 dpf zebrafish assessed as abnormal liver size at 1.39 to 12.5 ug/ml measured after 3 days; design: species or system Danio rerio; settings: in vivo, 72 h, dose 1.39-12.5 µg/ml, time 3 day
[22] = Acute toxicity in 2 dpf zebrafish assessed as abnormal trunk at 1.39 to 12.5 ug/ml measured after 3 days; design: species or system Danio rerio; settings: in vivo, 72 h, dose 1.39-12.5 µg/ml, time 3 day
[23] = Acute toxicity in 2 dpf zebrafish assessed as abnormal notochord at 1.39 to 12.5 ug/ml measured after 3 days; design: species or system Danio rerio; settings: in vivo, 72 h, dose 1.39-12.5 µg/ml, time 3 day
[24] = Acute toxicity in 2 dpf zebrafish assessed as degenerating trunk muscle within somite at 1.39 to 12.5 ug/ml measured after 3 days; type: tissue-based, Danio rerio; settings: in vivo, 72 h, dose 1.39-12.5 µg/ml, time 3 day
[25] = Acute toxicity in 2 dpf zebrafish assessed as abnormal pigmentation at 1.39 to 12.5 ug/ml measured after 3 days; design: species or system Danio rerio; settings: in vivo, 72 h, dose 1.39-12.5 µg/ml, time 3 day
[26] = Acute toxicity in 2 dpf zebrafish assessed as death at 1.39 to 12.5 ug/ml measured after 3 days; design: species or system Danio rerio; settings: in vivo, 72 h, dose 1.39-12.5 µg/ml, time 3 day
[27] = Toxicity in 3 dpf zebrafish model of AlCl3-induced AD assessed as minimum toxic concentration; design: species or system Danio rerio; settings: in vivo
[28] = organism: Danio rerio; experiment: Antialzheimer activity against 3 dpf zebrafish model of AlCl3-induced AD assessed as motility by measuring efficacy on speed change at 1.4 ug/ml relative to control; type: functional; settings: dose 1.4 µg/ml
[29] = organism: Danio rerio; experiment: Antialzheimer activity against 3 dpf zebrafish model of AlCl3-induced AD assessed as motility by measuring efficacy on speed change at 12.5 ug/ml relative to control; type: functional; settings: dose 12.5 µg/ml
[30] = organism: Danio rerio; experiment: Protection against amyloid beta (1 to 40 residues)-induced vascular injury in transgenic zebrafish assessed as efficacy on motility at 1.4 ug/ml relative to control; type: functional; settings: dose 1.4 µg/ml
[31] = organism: Danio rerio; experiment: Protection against amyloid beta (1 to 40 residues)-induced vascular injury in transgenic zebrafish assessed as efficacy on motility at 4.2 ug/ml relative to control; type: functional; settings: dose 4.2 µg/ml
[32] = system: Mus musculus; experiment: Cognitive enhancing effect in scopolamine-induced Kunming mouse model of memory impairment assessed as effect on total arm entries at 5 to 20 mg/kg by Y-maze test; type: functional, organism-based; settings: dose 5-20 mg/kg
[33] = system: Mus musculus; experiment: Reversal of scopolamine-induced Kunming mouse model of memory impairment assessed as spontaneous alteration at 10 mg/kg by Y-maze test (reference value: 41.6 %); type: functional
[34] = system: Mus musculus; experiment: Antialzheimer activity in scopolamine-induced Kunming mouse model of memory impairment assessed as Q30 bases ratio (raw data) in brain hippocampus at 10 mg/kg by illumina sequencing method (reference value: 93.53 %); type: functional
[35] = system: Mus musculus; experiment: Antialzheimer activity in scopolamine-induced Kunming mouse model of memory impairment assessed as Q30 bases ratio (QC data) in brain hippocampus at 10 mg/kg by illumina sequencing method (reference value: 96.67 %); type: functional
[36] = system: Mus musculus; experiment: Antialzheimer activity in scopolamine-induced Kunming mouse model of memory impairment assessed as total reads in brain hippocampus at 10 mg/kg by illumina sequencing method (reference value: 100 %); type: functional
[37] = Drug metabolism in human liver microsomes assessed as metabolite formation by UPLC-MS/MS analysis; type: ADME, Microsome

## CCN(C)C(=O)Oc1ccc(-c2cc(=O)c3c(O)cc(OC(=O)N(C)CC)cc3o2)cc1
[1]
  Activity: 1.3 equiv
[2]
  Activity: 54.1%
[3]
  Activity: 50.6%
[4]
  Activity: 83.6%
[5]
  Activity: 71.7%
[6]
  inhibition: 77.9%
[7]
  inhibition: 78.9%
[8]
  inhibition: Active
[9]
  viability at 10 µM: 76.7%
[10]
  Activity: 398 nm
[11]
  Activity: 384 nm
[12]
  Activity: inactive
[13]
  Activity: inactive
[14]
  Activity: Active
[15]
  viability at 72 h, 6.25 µM: 99%
[16]
  MNTC at 72 h: 12.5 µg/mL
[17]
  Activity: Non-Toxic
[18]
  Activity: Non-Toxic
[19]
  Activity: Non-Toxic
[20]
  Activity: Non-Toxic
[21]
  Activity: Non-Toxic
[22]
  Activity: Non-Toxic
[23]
  Activity: Non-Toxic
[24]
  Activity: Non-Toxic
[25]
  Activity: Non-Toxic
[26]
  Activity: Non-Toxic
[27]
  MTC: 12.5 µg/mL
[28]
  Efficacy: 58%
[29]
  Efficacy: 87%
[30]
  Efficacy: 18%
[31]
  Efficacy: 27%
[32]
  Activity: inactive
[33]
  Activity: 63.4%
[34]
  Activity: 92.76%
[35]
  Activity: 96.43%
[36]
  Activity: 100%
[37]
  Drug metabolism: Metabolite_Detected
